Measurements published in patent US20180354962A1, “[{[2,3-Dihydro-1H-inden-1-yl]amino}-2H,3H-furo[3,2-b]pyridin-3-yl]acetic acids, pharmaceutical compositions and uses thereof” (Boehringer Ingelheim International GmbH, priority 2015, published 2018).
Values after ≈ are worked out from the molar mass of the structure shown.

How the values were obtained:
[1] = Chemical stability (degradation kinetics) in acidic aqueous media, HPLC; format: physicochemical; conditions: acetonitrile/0.1 M aqueous HCl (2:3), pH ca. 1.2, 37° C.
Experimental: Degradation kinetics is used to simulate chemical stability of compounds in the acidic part of the gastro intestinal tract. […] Their application as medical drugs to treat human diseases is therefore less restricted and troublesome. The chemical stability of the compounds of the invention at pH value of ca. 1.2 is determined as follows: Compound is dissolved in an HPLC vial either in a mixture of acetonitrile/0.1 M aqueous HCl (2:3; pH ca. 1.2) or in a mixture of acetonitrile/McIlvaine buffer pH 7.4 (2:3) to get a concentration of approximately 0.25 mg/ml. The vial was then transferred into an HPLC autosampler system and maintained at a temperature of 37° C. A first sample is taken and injected immediately into a standard HPLC system with a UV DAD detector. Further samples are injected after 2, 4, 6, 8 and 10 hours. Degradation of the compound is measured by determining the recovery rate of compound [%] for each injection using an HPLC standard gradient method. Therefore the peak area of the main peak for the first injection (AUt0) is determined and set as 100%. Peak area of the main peak is determined also for the further injections (AUtn, n=2, 4, 6, 8, 10) and expressed as fraction of […][%].

[2] = biological target: T1, cytochrome P450 2C9-isoenzyme (Homo sapiens, UniProt P11712); experiment: Inhibition of CYP-2C9 (diclofenac hydroxylation, human liver microsomes); format: in vitro ADME; conditions: human liver microsomes 0.1 mg/mL, diclofenac 10 μM, 37° C.
T1 construct: is assayed at 37° C. with human liver microsomes; from tissue; host or cells: human liver microsomes
T1 sequence (P11712 whole entry): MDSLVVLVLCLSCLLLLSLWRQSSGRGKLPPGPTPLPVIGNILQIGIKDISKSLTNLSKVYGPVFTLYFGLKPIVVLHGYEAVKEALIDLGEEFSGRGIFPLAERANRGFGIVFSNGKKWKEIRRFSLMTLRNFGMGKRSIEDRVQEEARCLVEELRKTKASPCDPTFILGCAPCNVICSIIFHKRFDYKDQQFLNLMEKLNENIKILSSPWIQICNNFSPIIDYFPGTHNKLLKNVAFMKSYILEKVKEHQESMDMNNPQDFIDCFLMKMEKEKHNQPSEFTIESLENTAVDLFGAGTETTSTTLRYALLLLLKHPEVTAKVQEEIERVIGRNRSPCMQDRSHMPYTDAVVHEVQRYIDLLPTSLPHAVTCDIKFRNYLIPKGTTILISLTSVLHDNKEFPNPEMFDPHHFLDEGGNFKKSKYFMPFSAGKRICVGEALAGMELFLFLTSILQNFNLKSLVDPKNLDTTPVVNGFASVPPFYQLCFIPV
Experimental: All assays are carried out on a robotic system in 96 well plates. The final incubation volume contains TRIS buffer (0.1 M), MgCl2 (5 mM), human liver microsomes (0.1 mg/mL), diclofenac (10 μM) and the test compound at five different concentrations or no compound (high control) in duplicate (e.g. highest concentration 10-50 μM with subsequent serial 1:4 dilutions). Following a short preincubation period, reactions are started with the cofactor (NADPH, 1 mM) and stopped by cooling the incubation down to 8° C. and subsequently by addition of one volume of acetonitrile. An internal standard solution—the stable isotope 13C6-hydroxydiclofenac—is added after quenching of incubations. Peak area analyte (=metabolite formed) and internal standard is determined by LC-MS/MS. The resulting peak area ratio analyte to internal standard in these incubations is compared to a control activity containing no test compound. Within each of the assay runs, the IC50 of a positive control inhibitor (sulfaphenazole) is determined. Experimental IC50 values are calculated by least square regression according to the following equation: % control activity=(100% control activity/(1+(I/IC50)S)))−B with I=inhibitor concentration S=slope factor B=background activity (lower plateau of the inhibition curve) If the inhibition of the reaction is already >50% at the lowest concentration of the test compound, the IC50 is assigned “<lowest concentration tested” (usually <0.4 μM). If the inhibition of the reaction is still <50% at the highest concentration of the test compound, the IC50 is assigned “>highest concentration tested” (usually >50 μM).

[3] = biological target: T2, cytochrome P450 2C8-isoenzyme (Homo sapiens, UniProt P10632); experiment: Inhibition of CYP-2C8 (amodiaquine deethylation, human liver microsomes); format: in vitro ADME; conditions: human liver microsomes 0.05 mg/mL, amodiaquine 1 μM, 37° C.
T2 construct: is assayed at 37° C. with human liver microsomes; from tissue; host or cells: human liver microsomes
T2 sequence (P10632 1-490): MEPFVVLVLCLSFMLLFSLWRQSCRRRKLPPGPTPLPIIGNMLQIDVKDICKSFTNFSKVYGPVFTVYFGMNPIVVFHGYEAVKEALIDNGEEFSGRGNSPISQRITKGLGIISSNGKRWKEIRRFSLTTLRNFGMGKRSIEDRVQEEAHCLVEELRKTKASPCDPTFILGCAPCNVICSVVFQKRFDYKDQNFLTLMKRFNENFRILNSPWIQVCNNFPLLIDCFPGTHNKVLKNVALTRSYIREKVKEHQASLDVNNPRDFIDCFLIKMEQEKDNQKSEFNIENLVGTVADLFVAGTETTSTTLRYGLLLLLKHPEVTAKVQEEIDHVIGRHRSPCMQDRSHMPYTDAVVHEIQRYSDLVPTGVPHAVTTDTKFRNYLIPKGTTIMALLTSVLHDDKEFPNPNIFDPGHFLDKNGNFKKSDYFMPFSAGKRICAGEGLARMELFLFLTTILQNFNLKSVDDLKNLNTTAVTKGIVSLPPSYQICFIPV
Experimental: All assays are carried out on a robotic system in 96 well plates. The final incubation volume contains TRIS buffer (0.1 M), MgCl2 (5 mM), human liver microsomes (0.05 mg/mL), amodiaquine (1 μM) and the test compound at five different concentrations or no compound (high control) in duplicate (e.g. highest concentration 10-50 μM with subsequent serial 1:4 dilutions). Following a short preincubation period, reactions are started with the cofactor (NADPH, 1 mM) and stopped by cooling the incubation down to 8° C. and subsequently by addition of one volume of acetonitrile. An internal standard solution—the stable isotope d5-desethylamodiaquine—is added after quenching of incubations. Peak area analyte (=metabolite formed) and internal standard is determined by LC-MS/MS. The resulting peak area ratio analyte to internal standard in these incubations is compared to a control activity containing no test compound. Within each of the assay runs, the IC50 of a positive control inhibitor (Montelukast) is determined. Experimental IC50 values are calculated by least square regression according to the following equation: % control activity=(100% control activity/(1+(I/IC50)S))−B with I=inhibitor concentration; S=slope factor; B=background activity (lower plateau of the inhibition curve) If the inhibition of the reaction is already >50% at the lowest concentration of the test compound, the IC50 is assigned “<lowest concentration tested” (usually <0.4 μM). If the inhibition of the reaction is still <50% at the highest concentration of the test compound, the IC50 is assigned “>highest concentration tested” (usually >50 μM).

[4] = Aqueous solubility from DMSO stock, LC-UV; format: physicochemical; conditions: aqueous buffer, kinetic from dmso stock; buffer pH 2.2, 24 h shaking, 2.5% DMSO
Experimental: The aqueous solubility of the compounds of the invention is determined by comparing the amount dissolved in buffer to the amount in an acetonitrile/water (1/1) solution. Starting from a 10 mM DMSO stock solution aliquots are diluted with acetonitrile/water (1/1) or buffer, respectively. After 24 h of shaking, the solutions are filtrated and analyzed by LC-UV. The amount dissolved in buffer is compared to the amount in the acetonitrile solution. Solubility is usually being measured from 0.001 to 0.125 mg/mL at a DMSO concentration of 2.5%. If more than 90% of the compound is dissolved in buffer, the value is marked with “>”.

human GPR40 receptor = human GPR40 receptor (Homo sapiens, UniProt O14842); experiment: IP1 accumulation measurements using the IPOne assay system; format: cell-based; conditions: 1321N1 cells stably expressing human GPR40; 1 h stimulation at 37° C.
human GPR40 receptor, sequence (O14842 whole entry): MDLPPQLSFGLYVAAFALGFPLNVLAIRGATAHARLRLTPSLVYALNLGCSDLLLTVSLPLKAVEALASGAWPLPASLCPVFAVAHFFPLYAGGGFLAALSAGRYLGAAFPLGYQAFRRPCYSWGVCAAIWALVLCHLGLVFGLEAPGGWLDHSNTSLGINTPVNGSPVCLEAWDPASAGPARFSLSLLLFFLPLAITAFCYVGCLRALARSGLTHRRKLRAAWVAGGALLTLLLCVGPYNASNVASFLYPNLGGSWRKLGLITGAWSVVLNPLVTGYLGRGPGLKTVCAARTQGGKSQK
Experimental: IP1 accumulation measurements using the IPOne assay system—1321N1 cells stably expressing human GPR40 receptor (Euroscreen, Belgium) are seeded 24 h before the assay in white 384-well plates in culture medium containing 10% FCS, 1% Na-Pyruvate and 400 μg/mL G418. IP1 is assayed according to the manufacturer's description (Cisbio Bioassays, France). In brief, the assay is started by substitution of the culture medium by stimulation buffer (Hepes 10 mM, CaCl2 1 mM, MgCl2 0.5 mM, KCl 4.2 mM, NaCl 146 mM, glucose 5.5 mM and LiCl 50 mM, pH 7.4). Cells are stimulated for 1 h at 37° C., 5% CO2 by addition of the compounds that are diluted in stimulation buffer containing LiCl. Assays are stopped by adding HTRF-conjugates (IP1-d2 and Anti-IP1 cryptate Tb) and lysis buffer, provided by the manufacturer. After an incubation time of 1 h at room temperature plates are measured using an EnVision™, Perkin Elmer. The obtained fluorescence ratios at 665/615 […] are then used to calculate the pEC50 values using Assay Explorer 3.3 Software (Accelrys, Inc.) by interpolation using an IP1 reference curve and subsequent sigmoidal curve fitting allowing for a variable hill slope.

## Cc1cc(-c2nnn(C)n2)cc(C)c1-c1ccc(F)c2c1CC[C@H]2Oc1ccc2c(c1)OC[C@H]2CC(=O)O [95 (WO 2013/144097), reference compound]
[1]
  Amount of degradation after 2 h: 4%
[2]
  IC50: 19 µM
[3]
  IC50: 9 µM
[4]
  solubility at 24 h: < 1 µg/mL

## Cc1cc(OCCCS(C)(=O)=O)cc(C)c1-c1cccc2c1CC[C@H]2Oc1ccc2c(c1)OC[C@H]2CC(=O)O [2 (WO 2013/144098), reference compound]
[1]
  Amount of degradation after 2 h: 94%
[3]
  IC50: 19 µM

## Cc1cc(-c2nnn(C)n2)cc(C)c1-c1ccc(F)c2c1CC[C@H]2Nc1cnc2c(c1)OC[C@H]2CC(=O)O [Example 5, 2-[(3S)-6-{[(1R)-4-[2,6-Dimethyl-4-(2-methyl-2H-1,2,3,4-tetrazol-5-yl)phenyl]-7-fluoro-2,3-dihydro-1H-inden-1-yl]amino}-2H,3H-furo[3,2-b]pyridin-3-yl]acetic acid]
[1]
  Amount of degradation after 2 h: 0.4%
[2]
  IC50: 48 µM
[3]
  IC50: 22 µM
Human GPR40 receptor
  EC50: 0.026 µM
[4]
  solubility at 24 h: 7 µg/mL (≈ 13.6 µM)

## Cc1cc(-c2nnn(C)n2)cc(C)c1-c1cccc2c1CC[C@H]2Nc1cnc2c(c1)OC[C@H]2CC(=O)O [Example 3, 2-[(3S)-6-{[(1R)-4-[2,6-Dimethyl-4-(2-methyl-2H-1,2,3,4-tetrazol-5-yl)phenyl]-2,3-dihydro-1H-inden-1-yl]amino}-2H,3H-furo[3,2-b]pyridin-3-yl]acetic acid]
[1]
  Amount of degradation after 2 h: <0.5%
[2]
  IC50: > 50 µM
[3]
  IC50: 29 µM
Human GPR40 receptor
  EC50: 0.042 µM
[4]
  solubility at 24 h: 6 µg/mL (≈ 12.1 µM)

## Cc1cc(OCCC(C)(C)O)cc(C)c1-c1cccc2c1CC[C@H]2Nc1cnc2c(c1)OC[C@H]2CC(=O)O [Example 4, 2-[(3S)-6-{[(1R)-4-[4-(3-Hydroxy-3-methylbutoxy)-2,6-dimethylphenyl]-2,3-dihydro-1H-inden-1-yl]amino}-2H,3H-furo[3,2-b]pyridin-3-yl]acetic acid]
[1]
  Amount of degradation after 2 h: <0.5%
[2]
  IC50: > 50 µM
[3]
  IC50: 43 µM
Human GPR40 receptor
  EC50: 0.064 µM
[4]
  solubility at 24 h: 57 µg/mL (≈ 110 µM)

## Cc1cc(OCCC(C)(C)O)cc(C)c1-c1ccc(F)c2c1CC[C@H]2Nc1cnc2c(c1)OC[C@H]2CC(=O)O [Example 2, 2-[(3S)-6-{[(1R)-7-Fluoro-4-[4-(3-hydroxy-3-methylbutoxy)-2,6-dimethylphenyl]-2,3-dihydro-1H-inden-1-yl]amino}-2H,3H-furo[3,2-b]pyridin-3-yl]acetic acid]
[1]
  Amount of degradation after 2 h: 0.2%
[2]
  IC50: > 50 µM
[3]
  IC50: 32 µM
Human GPR40 receptor
  EC50: 0.061 µM
[4]
  solubility at 24 h: 60 µg/mL (≈ 112 µM)

## CCc1cccc(CC)c1-c1cccc2c1CC[C@H]2Nc1cnc2c(c1)OCC2CC(=O)O (stereo partly drawn) [Example 124, 2-(6-{[(1R)-4-(2,6-Diethylphenyl)-2,3-dihydro-1H-inden-1-yl]amino}-2H,3H-furo[3,2-b]pyridin-3-yl)acetic acid]
[2]
  IC50: 49 µM
[3]
  IC50: 9 µM
Human GPR40 receptor
  EC50: 0.075 µM
[4]
  solubility at 24 h: 6 µg/mL (≈ 13.6 µM)

## COc1cc(F)c(-c2cccc3c2CC[C@H]3Nc2cnc3c(c2)OCC3CC(=O)O)c(F)c1 (stereo partly drawn) [Example 127, 2-(6-{[(1R)-4-(2,6-Difluoro-4-methoxyphenyl)-2,3-dihydro-1H-inden-1-yl]amino}-2H,3H-furo[3,2-b]pyridin-3-yl)acetic acid]
[2]
  IC50: > 50 µM
[3]
  IC50: 27 µM
Human GPR40 receptor
  EC50: 1.24 µM
[4]
  solubility at 24 h: 30 µg/mL (≈ 66.3 µM)

## O=C(O)CC1COc2cc(N[C@@H]3CCc4c(-c5ccccc5C(F)(F)F)cccc43)cnc21 (stereo partly drawn) [Example 125, 2-(6-{[(1R)-4-[2-(Trifluoromethyl)phenyl]-2,3-dihydro-1H-inden-1-yl]amino}-2H,3H-furo[3,2-b]pyridin-3-yl)acetic acid]
[2]
  IC50: 47 µM
[3]
  IC50: 21 µM
Human GPR40 receptor
  EC50: 0.693 µM
[4]
  solubility at 24 h: 22 µg/mL (≈ 48.4 µM)

## Cc1cc(OCC(C)(C)C#N)cc(C)c1-c1cccc2c1CC[C@H]2Nc1cnc2c(c1)OCC2CC(=O)O (stereo partly drawn) [Example 123, 2-(6-{[(1R)-4-[4-(2-Cyano-2,2-dimethylethoxy)-2,6-dimethylphenyl]-2,3-dihydro-1H-inden-1-yl]amino}-2H,3H-furo[3,2-b]pyridin-3-yl)acetic acid]
[2]
  IC50: 28 µM
[3]
  IC50: 9 µM
Human GPR40 receptor
  EC50: 0.153 µM
[4]
  solubility at 24 h: < 1 µg/mL

## Cc1cc(OCCC(C)(C)O)cc(C)c1-c1ccc(F)c2c1CC[C@H]2Oc1ccc2c(c1)OC[C@H]2CC(=O)O [4 (WO 2013/144097), reference compound]
[1]
  Amount of degradation after 2 h: 13%
[2]
  IC50: 21 µM
[3]
  IC50: 6 µM
[4]
  solubility at 24 h: < 1 µg/mL
